In patent US20170334899A1, “AMINO-SUBSTITUTED ISOTHIAZOLES” (Bayer Pharma Aktiengesellschaft, priority 2014, published 2017):

Legend:
[1] = target: T1, CDK2/CycE (Homo sapiens, UniProt P24941); assay: CDK2/CycE kinase assay (TR-FRET); format: biochemical; details: avg, read-out: CDK2 avg (IC50 [mol/l])
T1 construct: GST; purchased ProQinase GmbH (Freiburg, Germany); host or cells: insect cells (Sf9)
Method in brief: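 Read-out is a TR-FRET 665/620 nm emission ratio from EDTA-stopped reactions detected with anti-pRB(pSer807/pSer811), Eu-labelled anti-mouse IgG and streptavidin-XL665, scaled between no-enzyme and uninhibited wells. Reaction: Sf9-expressed GST-CDK2/GST-CycE, 15 min compound preincubation, 10 μM ATP, 0.75 μM biotin-peptide, 25 min, 22° C., pH 8.0 Tris buffer.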

[2] = target: T2, catalytic domain of human Bub1 (amino acids 704-1085) (Homo sapiens, UniProt O43683); assay: Bub1 kinase assay (TR-FRET); format: biochemical; details: 10 μM ATP, avg, read-out: Bub1 avg (IC50 [mol/l])
T2 construct: catalytic domain of human Bub1 (amino acids 704-1085); His6 (N); made in house; host or cells: insect cells (Hi5)
T2 sequence (O43683 704-1085): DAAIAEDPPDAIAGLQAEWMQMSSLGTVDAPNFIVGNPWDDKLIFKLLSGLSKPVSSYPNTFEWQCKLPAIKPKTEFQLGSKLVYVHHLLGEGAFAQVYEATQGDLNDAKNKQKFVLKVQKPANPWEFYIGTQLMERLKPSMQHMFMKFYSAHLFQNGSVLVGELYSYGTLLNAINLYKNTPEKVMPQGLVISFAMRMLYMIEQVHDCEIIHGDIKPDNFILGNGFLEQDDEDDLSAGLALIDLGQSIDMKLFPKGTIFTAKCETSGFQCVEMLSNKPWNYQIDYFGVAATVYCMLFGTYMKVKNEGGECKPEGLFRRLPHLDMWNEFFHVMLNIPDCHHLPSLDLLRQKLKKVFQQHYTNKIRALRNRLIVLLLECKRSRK
Method in brief: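 Readout is the 665/620 nm TR-FRET ratio from anti-phosphoserine antibody, Eu-labelled anti-mouse IgG and streptavidin-XL665, scaled between no-enzyme and uninhibited controls. Reaction: 1 μM biotinylated peptide, 10 μM ATP, 60 min, 22 °C, after 15 min compound preincubation with His6-Bub1 (704-1085, insect-expressed, ~200 ng/ml).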

| Compound | IC50 [1] | IC50 [2] |
| --- | --- | --- |
| Cc1nsc(Nc2cncc(C(F)(F)F)n2)c1C(=O)Nc1ccc(C(=O)N2CCN(CCF)CC2)cc1 [Example 274, N-(4-{[4-(2-fluoroethyl)piperazin-1-yl]carbonyl}phenyl)-3-methyl-5-{[6-(trifluoromethyl)pyrazin-2-yl]amino}-1,2-thiazole-4-carboxamide] | 5.4 µM | > 20 µM |
| Cc1nsc(Nc2cnc3ccccc3n2)c1C(=O)Nc1cccc(NS(=O)(=O)C2CN(CCC(F)(F)F)C2)c1 [Example 288, 3-methyl-5-(quinoxalin-2-ylamino)-N-[3-({[1-(3,3,3-trifluoropropyl)azetidin-3-yl]sulfonyl}amino)phenyl]-1,2-thiazole-4-carboxamide] | > 20 µM | > 20 µM |
| Cc1nsc(Nc2cnc(C(F)(F)F)cn2)c1C(=O)Nc1ccc(OC2CCN(C(CF)CF)C2)nc1 (centres unmarked) [Example 313, N-(6-{[1-(1,3-difluoropropan-2-yl)pyrrolidin-3-yl]oxy}pyridin-3-yl)-3-methyl-5-{[5-(trifluoromethyl)pyrazin-2-yl]amino}-1,2-thiazole-4-carboxamide] | ≥ 20 µM | ≥ 20 µM |
| Cc1nsc(Nc2cnc(C(F)(F)F)cn2)c1C(=O)Nc1ccc(OCCCNCCC(F)(F)F)nc1 [Example 294, 3-methyl-5-{[5-(trifluoromethyl)pyrazin-2-yl]amino}-N-(6-{3-[(3,3,3-trifluoropropyl)amino]propoxy}pyridin-3-yl)-1,2-thiazole-4-carboxamide] | > 20 µM | > 20 µM |
| Cc1nsc(Nc2cncc(C(F)(F)F)n2)c1C(=O)Nc1ccc(F)c(OC2CCN(CC(F)(F)F)CC2)c1 [Example 267, N-(4-fluoro-3-{[1-(2,2,2-trifluoroethyl)piperidin-4-yl]oxy}phenyl)-3-methyl-5-{[6-(trifluoromethyl)pyrazin-2-yl]amino}-1,2-thiazole-4-carboxamide] | > 20 µM | > 20 µM |
| Cc1nsc(Nc2cncc(C(F)(F)F)n2)c1C(=O)Nc1ccc(OC2CCN(CCC(F)(F)F)CC2)nc1 [Example 304, 3-methyl-5-{[6-(trifluoromethyl)pyrazin-2-yl]amino}-N-(6-{[1-(3,3,3-trifluoropropyl)piperidin-4-yl]oxy}pyridin-3-yl)-1,2-thiazole-4-carboxamide] | > 20 µM | > 20 µM |
| Cc1nsc(Nc2cnc(C(F)(F)F)cn2)c1C(=O)Nc1ccc(F)c(OCCCN(C)CC(F)F)c1 [Example 301, N-(3-{3-[(2,2-difluoroethyl)(methyl)amino]propoxy}-4-fluorophenyl)-3-methyl-5-{[5-(trifluoromethyl)pyrazin-2-yl]amino}-1,2-thiazole-4-carboxamide] | > 20 µM | > 20 µM |
| Cc1nsc(Nc2cnc(C(F)(F)F)cn2)c1C(=O)Nc1ccc(F)c(OCC2CCN(CC(F)(F)F)CC2)c1 [Example 310, N-(4-fluoro-3-{[1-(2,2,2-trifluoroethyl)piperidin-4-yl]methoxy}phenyl)-3-methyl-5-{[5-(trifluoromethyl)pyrazin-2-yl]amino}-1,2-thiazole-4-carboxamide] | ≥ 20 µM | ≥ 20 µM |
| COC(=O)CCc1cccc(NC(=O)c2c(C)nsc2Nc2cnc3ccccc3n2)c1 [Example 257, methyl 3-[3-({[3-methyl-5-(quinoxalin-2-ylamino)-1,2-thiazol-4-yl]carbonyl}amino)phenyl]propanoate] | > 20 µM | > 20 µM |
| Cc1nsc(Nc2cnc(C(F)(F)F)cn2)c1C(=O)Nc1ccc(F)c(OCC2CCN(CC(F)F)CC2)c1 [Example 308, N-(3-{[1-(2,2-difluoroethyl)piperidin-4-yl]methoxy}-4-fluorophenyl)-3-methyl-5-{[5-(trifluoromethyl)pyrazin-2-yl]amino}-1,2-thiazole-4-carboxamide] | ≥ 20 µM | ≥ 20 µM |
| Cc1nsc(Nc2cnc(C(F)(F)F)cn2)c1C(=O)Nc1ccc(F)c(OCC2CCN(CCF)C2)c1 (centres unmarked) [Example 317, N-(4-fluoro-3-{[1-(2-fluoroethyl)pyrrolidin-3-yl]methoxy}phenyl)-3-methyl-5-{[5-(trifluoromethyl)pyrazin-2-yl]amino}-1,2-thiazole-4-carboxamide] | > 20 µM | > 20 µM |
| Cc1nsc(Nc2cnc(C(F)(F)F)cn2)c1C(=O)Nc1ccc(F)c(OC2CCN(CC(F)F)C2)c1 (centres unmarked) [Example 314, N-(3-{[1-(2,2-difluoroethyl)pyrrolidin-3-yl]oxy}-4-fluorophenyl)-3-methyl-5-{[5-(trifluoromethyl)pyrazin-2-yl]amino}-1,2-thiazole-4-carboxamide] | ≥ 20 µM | ≥ 20 µM |
| COC(=O)CCCc1ccc(NC(=O)c2c(C)nsc2Nc2cc(C#N)ccn2)cc1 [Example 256, methyl 4-{4-[({5-[(4-cyanopyridin-2-yl)amino]-3-methyl-1,2-thiazol-4-yl}carbonyl)amino]phenyl}butanoate] | > 20 µM | > 20 µM |
| CCN1CCN(C(=O)c2ccc(NC(=O)c3c(C)nsc3Nc3cnc(C(F)(F)F)cn3)cc2)CC1 [Example 261, N-{4-[(4-ethylpiperazin-1-yl)carbonyl]phenyl}-3-methyl-5-{[5-(trifluoromethyl)pyrazin-2-yl]amino}-1,2-thiazole-4-carboxamide] | > 20 µM | > 20 µM |
| Cc1nsc(Nc2cnc(C(F)(F)F)cn2)c1C(=O)Nc1ccc(OCCNCC(F)F)nc1 [Example 305, N-(6-{2-[(2,2-difluoroethyl)amino]ethoxy}pyridin-3-yl)-3-methyl-5-{[5-(trifluoromethyl)pyrazin-2-yl]amino}-1,2-thiazole-4-carboxamide] | ≥ 20 µM | 19 µM |
| Cc1nsc(Nc2cc(C#N)ccn2)c1C(=O)Nc1ccc(OC2CCN(C(=O)OC(C)(C)C)CC2)nc1 [Example 23, tert-Butyl 4-({5-[({5-[(4-cyanopyridin-2-yl)amino]-3-methyl-1,2-thiazol-4-yl}-carbonyl)amino]pyridin-2-yl}oxy)piperidine-1-carboxylate] | ≥ 20 µM | ≥ 20 µM |
| Cc1nsc(Nc2cc(C#N)ccn2)c1C(=O)Nc1ccc(OC2CCN(CC(F)F)CC2)nc1 [Example 263, 5-[(4-cyanopyridin-2-yl)amino]-N-(6-{[1-(2,2-difluoroethyl)piperidin-4-yl]oxy}pyridin-3-yl)-3-methyl-1,2-thiazole-4-carboxamide] | > 20 µM | > 20 µM |

Now from value to compound:

| IC50 [1] | IC50 [2] | Compound |
| --- | --- | --- |
| ≥ 20 µM | ≥ 20 µM | Cc1nsc(Nc2cnc(C(F)(F)F)cn2)c1C(=O)Nc1ccc(F)c(OCCCN(C)CCC(F)(F)F)c1 [Example 303, N-(4-fluoro-3-{3-[methyl(3,3,3-trifluoropropyl)amino]propoxy}phenyl)-3-methyl-5-{[5-(trifluoromethyl)pyrazin-2-yl]amino}-1,2-thiazole-4-carboxamide] |
| > 20 µM | > 20 µM | Cc1nsc(Nc2cnc(C(F)(F)F)cn2)c1C(=O)Nc1ccc(F)c(OCC2CCN(CCC(F)(F)F)CC2)c1 [Example 311, N-(4-fluoro-3-{[1-(3,3,3-trifluoropropyl)piperidin-4-yl]methoxy}phenyl)-3-methyl-5-{[5-(trifluoromethyl)pyrazin-2-yl]amino}-1,2-thiazole-4-carboxamide] |
| ≥ 20 µM | ≥ 20 µM | Cc1nsc(Nc2cnc(C(F)(F)F)cn2)c1C(=O)Nc1ccc(F)c(OCC2CCN(C(CF)CF)CC2)c1 [Example 312, N-(3-{[1-(1,3-difluoropropan-2-yl)piperidin-4-yl]methoxy}-4-fluorophenyl)-3-methyl-5-{[5-(trifluoromethyl)pyrazin-2-yl]amino}-1,2-thiazole-4-carboxamide] |
| > 20 µM | 0.6 µM | CCNC(=O)c1cccc(NC(=O)c2c(C)nsc2Nc2cnc3ccccc3n2)c1 [Example 251, N-[3-(ethylcarbamoyl)phenyl]-3-methyl-5-(quinoxalin-2-ylamino)-1,2-thiazole-4-carboxamide] |
| > 20 µM | > 20 µM | Cc1nsc(Nc2cncc(C(F)(F)F)n2)c1C(=O)Nc1ccc(C(=O)N2CCN(CC(F)(F)F)CC2)cc1 [Example 272, 3-methyl-N-(4-{[4-(2,2,2-trifluoroethyl)piperazin-1-yl]carbonyl}phenyl)-5-{[6-(trifluoromethyl)pyrazin-2-yl]amino}-1,2-thiazole-4-carboxamide] |
| ≥ 20 µM | ≥ 20 µM | Cc1nsc(Nc2cc(C#N)ccn2)c1C(=O)Nc1ccc(OC2CCN(CC(F)(F)F)CC2)nc1 [Example 25, 5-[(4-Cyanopyridin-2-yl)amino]-3-methyl-N-(6-{[1-(2,2,2-trifluoroethyl)piperidin-4-yl]oxy}pyridin-3-yl)-1,2-thiazole-4-carboxamide] |
| > 20 µM | > 20 µM | Cc1nsc(Nc2cnc(C(F)(F)F)cn2)c1C(=O)Nc1ccc(OCCCNCC(F)(F)F)nc1 [Example 292, 3-methyl-N-(6-{3-[(2,2,2-trifluoroethyl)amino]propoxy}pyridin-3-yl)-5-{[5-(trifluoromethyl)pyrazin-2-yl]amino}-1,2-thiazole-4-carboxamide] |
| > 20 µM | > 20 µM | Cc1nsc(Nc2cnc(C(F)(F)F)cn2)c1C(=O)Nc1cccc(NC(=O)OC(C)(C)C)c1 [Example 284, 3-tert-butyl (3-{[(3-methyl-5-{[5-(trifluoromethyl)pyrazin-2-yl]amino}-1,2-thiazol-4-yl)carbonyl]amino}phenyl)carbamate] |
